# What was measured:
# human PDGFRβ = human PDGFRβ (Homo sapiens (Human), UniProt P09619); assay: PDGFRβ kinase assay (PDGFRβ-HTRF); assay type: biochemical; conditions: 10 μM ATP; some mean values from multiple determinations
# Method in brief: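 GST-fused human PDGFRβ fragment (R561-L1106) from Sf9 cells was preincubated 15 min with compound in 50 mM HEPES pH 7.5, 10 mM MgCl2, 2.5 mM DTT, 0.01% Triton X-100; substrate was biotinylated poly-Glu,Tyr (4:1).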
# [1] = target: pPDGFRβ in normal human dermal fibroblasts (NHDF) (Homo sapiens (Human), UniProt P09619); assay: Cellular pPDGFRβ inhibition assay; assay type: cell-based; conditions: NHDF stimulated with 50 ng/ml PDGF-BB, 1 h
# Protocol: Thereafter, 50 ng/ml recombinant human PDGF-BB (R&D Systems, Cat. No. 220-BB-050) and a dilution series of the test substances to be examined in DMSO were added to the cells. The total volume per well was 100 μl. After incubation under the abovementioned conditions for one hour, the Opti-MEM® I Reduced Serum Medium was tapped out and discarded. Subsequently, the lysis buffer [Phospho PDGFRβ (Tyr751) Assay Whole Cell Lysate Kit, MSD, Cat. No. K150DVD-2] was made up according to the manufacturer's instructions and 70 μl of this mixture per well were added. The lysed cell samples were either stored at −20° C. or analysed immediately after the lysis in a Meso Scale SECTOR® Imager 2400 according to the abovementioned manufacturer's instructions. The measurement data were presented as percentage PDGFRβ stimulation compared to PDGF-BB-stimulated but substance-untreated cells. The IC50 values were calculated by employing the nonlinear regression (curve fit) function of GraphPad Prism 6 (La Jolla, Calif., USA).
# Chain of pPDGFRβ in normal human dermal fibroblasts (NHDF) (P09619 33-1106): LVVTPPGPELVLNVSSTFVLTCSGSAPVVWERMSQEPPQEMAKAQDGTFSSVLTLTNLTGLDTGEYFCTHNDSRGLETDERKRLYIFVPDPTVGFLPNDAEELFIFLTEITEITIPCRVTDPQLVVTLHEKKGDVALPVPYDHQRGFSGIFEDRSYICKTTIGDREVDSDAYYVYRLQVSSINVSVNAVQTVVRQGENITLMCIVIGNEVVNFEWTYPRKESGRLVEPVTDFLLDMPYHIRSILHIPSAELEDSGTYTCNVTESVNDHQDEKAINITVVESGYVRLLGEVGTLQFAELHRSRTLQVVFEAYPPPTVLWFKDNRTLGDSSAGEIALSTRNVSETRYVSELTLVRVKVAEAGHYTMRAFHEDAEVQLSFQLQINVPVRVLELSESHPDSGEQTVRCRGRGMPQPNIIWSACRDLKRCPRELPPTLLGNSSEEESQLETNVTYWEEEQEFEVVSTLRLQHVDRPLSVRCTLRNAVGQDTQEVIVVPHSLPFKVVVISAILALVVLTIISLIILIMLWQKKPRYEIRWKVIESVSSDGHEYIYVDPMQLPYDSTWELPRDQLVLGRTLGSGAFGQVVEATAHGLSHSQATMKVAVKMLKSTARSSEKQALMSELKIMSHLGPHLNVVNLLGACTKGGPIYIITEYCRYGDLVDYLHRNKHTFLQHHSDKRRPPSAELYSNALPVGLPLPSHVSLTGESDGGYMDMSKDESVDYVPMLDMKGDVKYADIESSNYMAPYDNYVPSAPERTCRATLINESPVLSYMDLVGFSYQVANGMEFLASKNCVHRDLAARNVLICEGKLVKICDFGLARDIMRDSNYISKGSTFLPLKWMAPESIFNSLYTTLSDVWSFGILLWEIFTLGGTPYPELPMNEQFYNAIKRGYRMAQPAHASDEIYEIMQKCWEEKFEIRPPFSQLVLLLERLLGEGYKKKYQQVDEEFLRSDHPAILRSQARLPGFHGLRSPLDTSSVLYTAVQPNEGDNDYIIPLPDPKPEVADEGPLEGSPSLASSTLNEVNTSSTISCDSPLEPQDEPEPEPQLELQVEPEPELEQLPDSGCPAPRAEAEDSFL
# Chain of human PDGFRβ (P09619 561-1106): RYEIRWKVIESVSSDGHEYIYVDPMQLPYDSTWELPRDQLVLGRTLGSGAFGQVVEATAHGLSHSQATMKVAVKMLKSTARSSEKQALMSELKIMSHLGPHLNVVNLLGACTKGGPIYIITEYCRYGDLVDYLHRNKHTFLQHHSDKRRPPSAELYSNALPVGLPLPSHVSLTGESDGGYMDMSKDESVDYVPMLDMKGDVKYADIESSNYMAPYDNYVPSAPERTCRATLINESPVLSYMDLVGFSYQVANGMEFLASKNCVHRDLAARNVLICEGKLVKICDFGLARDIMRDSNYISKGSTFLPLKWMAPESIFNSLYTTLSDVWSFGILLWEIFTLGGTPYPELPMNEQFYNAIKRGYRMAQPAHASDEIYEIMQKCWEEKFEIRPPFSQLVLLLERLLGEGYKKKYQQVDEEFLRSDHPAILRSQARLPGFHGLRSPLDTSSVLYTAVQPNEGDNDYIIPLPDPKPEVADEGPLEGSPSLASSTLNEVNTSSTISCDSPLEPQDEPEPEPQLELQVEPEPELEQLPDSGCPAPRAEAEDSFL
Compound,IC50 (human PDGFRβ) [nM],IC50 [1] [nM]
"Cc1cc(F)c(Nc2ccnc3c2C(=O)Nc2cc(CN(C)CCN)ccc2N3)cc1O [Example 209, 8-{[(2-Aminoethyl)(methyl)amino]methyl}-4-[(2-fluoro-5-hydroxy-4-methylphenyl)amino]-6,11-dihydro-5H-pyrido[2,3-b][1,5]benzodiazepin-5-one]",0.739,215
"Cc1cc(F)c(Nc2ccnc3c2C(=O)Nc2cc(CN4CCN(CC(F)F)CC4)ccc2N3)cc1O [Example 227, 8-{[4-(2,2-Difluoroethyl)piperazin-1-yl]methyl}-4-[(2-fluoro-5-hydroxy-4-methylphenyl)amino]-6,11-dihydro-5H-pyrido[2,3-b][1,5]benzodiazepin-5-one]",6.38,554

# Reference: patent US10047096B2, “Substituted pyridobenzodiazepinone-derivatives and use thereof” (Bayer Pharma Aktiengesellschaft, priority 2014, dated 2018)
